Test results reported in ChEMBL document CHEMBL1141239, “New series of potent delta-opioid antagonists containing the H-Dmt-Tic-NH-hexyl-NH-R motif” (Bioorg Med Chem Lett, 2005).
Square brackets hold non-standard residues; d marks the D form. Peptide text beside a SMILES is read from it. Dmt = Cc1cc(O)cc(C)c1C[C@H](N)C(=O)O; Tic = O=C(O)[C@@H]1Cc2ccccc2CN1

Columns and labels:
[1] = target: Delta-type opioid receptor (Rattus norvegicus, UniProt P33533); assay: Displacement of [3H]deltorphin II from delta opioid receptor in rat brain membrane; assay type: cell membranes
Delta-type opioid receptor (Rattus norvegicus, UniProt P33533), sequence (P33533 whole entry): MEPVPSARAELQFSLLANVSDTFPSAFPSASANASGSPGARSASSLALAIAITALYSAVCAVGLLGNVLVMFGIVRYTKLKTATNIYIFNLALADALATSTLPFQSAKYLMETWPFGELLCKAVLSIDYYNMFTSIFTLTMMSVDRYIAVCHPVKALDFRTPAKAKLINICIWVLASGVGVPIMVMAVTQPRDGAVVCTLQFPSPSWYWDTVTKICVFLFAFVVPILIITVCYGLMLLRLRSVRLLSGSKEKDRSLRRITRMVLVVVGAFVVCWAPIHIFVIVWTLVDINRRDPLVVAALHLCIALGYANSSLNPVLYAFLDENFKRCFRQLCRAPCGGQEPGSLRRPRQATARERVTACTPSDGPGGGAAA

Mu-type opioid receptor [2] = target: Mu-type opioid receptor (Rattus norvegicus, UniProt P33535); assay: Displacement of [3H]DAMGO from mu opioid receptor in rat brain membrane; assay type: cell membranes
Mu-type opioid receptor (Rattus norvegicus, UniProt P33535), sequence (P33535 whole entry): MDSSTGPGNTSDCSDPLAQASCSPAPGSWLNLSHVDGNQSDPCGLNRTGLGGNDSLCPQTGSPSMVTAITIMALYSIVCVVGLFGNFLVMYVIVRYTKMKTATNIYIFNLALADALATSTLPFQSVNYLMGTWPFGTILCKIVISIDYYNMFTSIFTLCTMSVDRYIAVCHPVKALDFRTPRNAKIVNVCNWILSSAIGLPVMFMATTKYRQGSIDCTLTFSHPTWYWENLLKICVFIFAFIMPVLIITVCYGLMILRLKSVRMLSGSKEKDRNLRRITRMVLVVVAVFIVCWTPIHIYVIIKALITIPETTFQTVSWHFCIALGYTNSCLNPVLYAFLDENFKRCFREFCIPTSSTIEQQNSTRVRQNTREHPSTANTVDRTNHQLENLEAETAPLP

[3] = target: Opioid receptors; mu & delta (Rattus norvegicus) (UniProt P33533+P33535); assay: Selectivity ratio of rat delta opioid receptor over rat mu opioid receptor; assay type: protein assay
Opioid receptors; mu & delta (Rattus norvegicus), sequence (P33533 whole entry, looked up): as the sequence (P33533 whole entry) above
Opioid receptors; mu & delta (Rattus norvegicus), sequence (P33535 whole entry, looked up): as the sequence (P33535 whole entry) above

[4] = target: T1, Delta-type opioid receptor (Mus musculus, UniProt P32300); assay: Agonistic activity at delta opioid receptor in mouse vas deferens; assay type: functional, tissue-based
T1 sequence (P32300 whole entry): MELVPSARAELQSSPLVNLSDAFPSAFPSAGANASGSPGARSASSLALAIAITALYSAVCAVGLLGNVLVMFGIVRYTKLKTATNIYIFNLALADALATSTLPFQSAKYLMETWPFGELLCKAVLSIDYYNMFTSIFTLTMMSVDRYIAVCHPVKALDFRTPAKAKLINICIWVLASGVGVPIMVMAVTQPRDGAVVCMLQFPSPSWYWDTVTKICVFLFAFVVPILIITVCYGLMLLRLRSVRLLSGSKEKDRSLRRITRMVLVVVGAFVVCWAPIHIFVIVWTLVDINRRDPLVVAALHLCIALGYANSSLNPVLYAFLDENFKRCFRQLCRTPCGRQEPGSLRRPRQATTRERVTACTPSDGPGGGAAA

[5] = target: T1, Delta-type opioid receptor; assay: Displacement of deltorphin-II from delta opioid receptor in mouse vas deferens; assay type: functional; details: read-out: pA2 (converted)
Mu-type opioid receptor [6] = target: Mu-type opioid receptor (Cavia porcellus, UniProt P97266); assay: Agonistic activity against mu opioid receptor in guinea-pig ileum; assay type: functional, tissue-based
Mu-type opioid receptor (Cavia porcellus, UniProt P97266), sequence (P97266 whole entry): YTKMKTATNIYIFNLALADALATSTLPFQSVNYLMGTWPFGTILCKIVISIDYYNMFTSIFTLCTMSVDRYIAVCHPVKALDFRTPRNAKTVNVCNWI

SMILES | Ki [1] | Ki (Mu-type opioid receptor [2]) | Ratio Ki [3] | IC50 [4] | Kb [5] | IC50 (Mu-type opioid receptor [6])
Cc1cc(O)cc(C)c1C[C@H](N)C(=O)N1Cc2ccccc2CC1C(=O)NCCCCCCNC(=O)[C@@H](N)Cc1ccccc1 (some centres undefined) | 0.89 nM | 1.91 nM | 2 | > 10000 nM | 0.0501 nM | 5550 nM
Cc1cc(O)cc(C)c1C[C@H](N)C(=O)N1Cc2ccccc2CC1C(=O)NCCCCCCNC(=O)C1Cc2ccccc2CN1 (some centres undefined) | 0.13 nM | 2.81 nM | 22 | > 10000 nM | 0.0398 nM | 1600 nM
Cc1cc(O)cc(C)c1C[C@H](N)C(=O)N1Cc2ccccc2C[C@H]1C(=O)O (H-[Dmt]-[Tic]-OH) | – | – | – | – | 3.16 nM | –
Cc1cc(O)cc(C)c1C[C@H](N)C(=O)NCCCCCCNC(=O)C1Cc2ccccc2CN1C(=O)[C@@H](N)Cc1c(C)cc(O)cc1C (some centres undefined) | 0.23 nM | 0.38 nM | 2 | > 10000 nM | 0.0631 nM | 5900 nM
